Like-named read-outs stand apart in the source and are kept apart here.
What was measured:
Diabrotica balteata = Diabrotica balteata spray test; format: in vivo; settings: 168 h, 160 μg/well, sprayed germinated wheat grains, beetle larvae, after 7 days, read-out: efficacy
Procedure: Diabrotica balteata—Spray Test [table] To produce a suitable active compound preparation, 1 part by weight of active compound is dissolved using the stated parts by weight of solvent and made up with water containing an emulsifier concentration of 1000 ppm until the desired concentration is attained. To produce further test concentrations, the formulation is diluted with emulsifier-containing water. Pre-swollen wheat grains (Triticum aestivum) are incubated in a multiwell plate filled with agar and a little water for one day (5 seed grains per well). The germinated wheat grains are sprayed with an active compound preparation of the desired concentration. Subsequently, each cavity is infected with 10-20 beetle larvae of Diabrotica balteata. After 7 days, the efficacy in % is determined. 100% means that all wheat plants have grown as in the untreated, uninfected control; 0% means that no wheat plant has grown.

Myzus persicae [1] = experiment: Myzus persicae oral test; format: in vivo; settings: 120 h, mixed population of green peach aphids, after 5 days, read-out: efficacy
Procedure: Myzus persicae—Oral Test [table] To produce a suitable preparation of active compound, 1 part by weight of active compound is dissolved using the specified parts by weight of solvent and made up with water until the desired concentration is attained. 50 μl of the active ingredient formulation are transferred into microtitre plates and made up to a final volume of 200 μl with 150 μl of IPL41 insect medium (33%+15% sugar). Subsequently, the plates are sealed with parafilm, which a mixed population of green peach aphids (Myzus persicae) within a second microtitre plate is able to puncture and imbibe the solution through. After 5 days, the efficacy in % is determined. 100% means that all the aphids have been killed; 0% means that no aphids have been killed.

Myzus persicae [2] = experiment: Myzus persicae spray test; format: in vivo; settings: foliar, 120 h, sprayed Chinese cabbage leaf discs, all stages of the green peach aphid, after 5 days, read-out: efficacy
Procedure: Myzus persicae—Spray Test [table] To produce a suitable active compound preparation, 1 part by weight of active compound is dissolved using the stated parts by weight of solvent and made up with water containing an emulsifier concentration of 1000 ppm until the desired concentration is attained. To produce further test concentrations, the formulation is diluted with emulsifier-containing water. Discs of Chinese cabbage leaves (Brassica pekinensis) infested by all stages of the green peach aphid (Myzus persicae) are sprayed with an active compound formulation of the desired concentration. After 5 days, the efficacy in % is determined. 100% means that all the aphids have been killed; 0% means that no aphids have been killed.

Spodoptera frugiperda = Spodoptera frugiperda spray test; format: in vivo; settings: foliar, 168 h, sprayed maize leaf discs, fall armyworm caterpillars, after 7 days, read-out: efficacy
Procedure: Spodoptera frugiperda—Spray Test [table] To produce a suitable active compound preparation, 1 part by weight of active compound is dissolved using the stated parts by weight of solvent and made up with water containing an emulsifier concentration of 1000 ppm until the desired concentration is attained. To produce further test concentrations, the formulation is diluted with emulsifier-containing water. Leaf discs of maize (Zea mays) are sprayed with an active compound formulation of the desired concentration and, after drying, populated with caterpillars of the fall armyworm (Spodoptera frugiperda). After 7 days, the efficacy in % is determined. 100% means that all the caterpillars have been killed; 0% means that no caterpillar has been killed.

Ctenocephalides felis = Ctenocephalides felis oral test; format: in vivo; settings: 48 h, 100 ppm in citrated cattle blood, unfed adult cat fleas, after 2 days, read-out: efficacy (kill in %)
Procedure: Ctenocephalides felis—Oral Test [table] To produce a suitable active compound preparation, 10 mg of active compound are mixed with 0.5 ml of dimethyl sulfoxide. Dilution with citrated cattle blood gives the desired concentration. About 20 unfed adult cat fleas (Ctenocephalides felis) are placed into a chamber which is closed at the top and bottom with gauze. A metal cylinder whose bottom end is closed with parafilm is placed onto the chamber. The cylinder contains the blood/active compound formulation, which can be imbibed by the fleas through the parafilm membrane. After 2 days, the kill in % is determined. 100% means that all of the fleas have been killed; 0% means that none of the fleas have been killed.

[3] = log P by HPLC on reversed-phase column (C18), EEC Directive 79/831 Annex V.A8; format: physicochemical
Procedure: The log P values were determined according to EEC Directive 79/831 Annex V.A8 by HPLC (high-performance liquid chromatography) on a reversed-phase column (C18) using the following methods: ^[a] […] Calibration was carried out using a homologous series of straight-chain alkan-2-ones (having 3 to 16 carbon atoms) with known log P values. The values between successive alkanones are determined by linear regression.

Phaedon cochleariae = Phaedon cochleariae spray test; format: in vivo; settings: 100 g/ha, sprayed Chinese cabbage leaf discs, mustard beetle larvae, after 7 days
Procedure: Phaedon cochleariae—Spray Test
To produce a suitable active compound preparation, 1 part by weight of active compound is dissolved using the stated parts by weight of solvent and made up with water containing an emulsifier concentration of 1000 ppm until the desired concentration is attained. To produce further test concentrations, the formulation is diluted with emulsifier-containing water.
Discs of Chinese cabbage leaves (Brassica pekinensis) are sprayed with an active compound formulation of the desired concentration and, after drying, populated with larvae of the mustard beetle (Phaedon cochleariae).
After 7 days, the efficacy in % is determined. 100% means that all the beetle larvae have been killed; 0% means that no beetle larvae have been killed.

Structure (SMILES)	pest or weed control at 160 µg/disc, 160 µg/well (Diabrotica balteata)	pest or weed control at 4 ppm (Myzus persicae [1])	pest or weed control at 100 g/ha (Myzus persicae [2])	pest or weed control at 100 g/ha (Spodoptera frugiperda)	pest or weed control at 100 ppm (Ctenocephalides felis)	chromatographic logP ([3]; LC-UV in the acidic range, formic acid in water / acetonitrile, read-out: log P[acidic])	chromatographic logP ([3]; LC-UV in the neutral range, ammonium carbonate in water / acetonitrile, read-out: log P[neutral])	efficacy (Phaedon cochleariae)
CCS(=O)(=O)c1c(-c2nc3cc(C(F)(F)C(F)(F)F)cnc3n2C)nc(-n2ccc(C3CC3)n2)n1C [Example I-21]	100%	100%	90%	100%	–	–	–	–
CCS(=O)(=O)c1c(-c2nc3cc(C(F)(F)F)cnc3n2C)nc(-c2ccc(C3CC3)s2)n1C [Example I-8]	–	100%	100%	100%	80%	–	–	–
CCS(=O)(=O)c1c(-c2nc3cc(C(F)(F)C(F)(F)F)cnc3n2C)nc(-c2cnn(-c3ccccc3C#N)c2)n1C [Example I-18]	80%	100%	70%	100%	–	–	–	–
CCS(=O)(=O)c1c(-c2nc3cc(C(F)(F)C(F)(F)F)cnc3n2C)nc(-c2ccc(C3(C#N)CC3)cc2)n1C [Example I-15]	100%	100%	90%	100%	–	–	–	–
CCS(=O)(=O)c1c(-c2nc3cc(C(F)(F)C(F)(F)F)cnc3n2C)nc(-c2cnn(C3CC3)c2)n1C [Example I-16]	100%	100%	90%	100%	–	–	–	–
CCS(=O)(=O)c1c(-c2nc3cc(C(F)(F)F)cnc3n2C)nc(-c2ccc(-c3cccs3)s2)n1C [Example I-13]	80%	100%	90%	–	–	–	–	–
CCS(=O)(=O)c1c(-c2nc3cc(C(F)(F)C(F)(F)F)cnc3n2C)nc(-c2cnn(-c3cccc(C#N)c3)c2)n1C [Example I-19]	100%	100%	–	100%	–	–	–	–
CCS(=O)(=O)c1c(-c2nc3cc(C(F)(F)F)cnc3n2C)nc(-c2ccc(-c3ccccc3)s2)n1C [Example I-11]	–	100%	90%	100%	90%	–	–	–
CCS(=O)(=O)c1c(-c2nc3cc(C(F)(F)C(F)(F)F)cnc3n2C)nc(-c2cnn(-c3ccc(F)cc3)c2)n1C [Example I-17]	100%	100%	–	100%	–	–	–	–
CCS(=O)(=O)c1c(-c2nc3cc(C(F)(F)F)cnc3n2C)nc(C2CC(c3ccccn3)=NO2)n1C (centres unmarked) [Example I-3]	–	100%	90%	100%	–	–	–	–
CCS(=O)(=O)c1c(-c2nc3cc(C(F)(F)F)cnc3n2C)nc(C2CC(c3cccnc3)=NO2)n1C (centres unmarked) [Example I-4]	–	100%	100%	–	–	–	–	–
CCS(=O)(=O)c1c(-c2nc3cc(C(F)(F)C(F)(F)F)cnc3n2C)nc(-c2ccc(C3CC3)nc2)n1C [Example I-22]	100%	100%	90%	100%	–	–	–	–
CCS(=O)(=O)c1c(-c2nc3cc(C(F)(F)F)cnc3n2C)nc(C2CC(C3CC3)=NO2)n1C (centres unmarked) [Example I-1, 2-[2-(3-Cyclopropyl-4,5-dihydro-1,2-oxazol-5-yl)-5-(ethylsulfonyl)-1-methyl-1H-imidazol-4-yl]-3-methyl-6-(trifluoromethyl)-3H-imidazo[4,5-b]pyridine]	–	100%	100%	–	100%	2.73	2.72	–
CCS(=O)(=O)c1c(-c2nc3cc(C(F)(F)C(F)(F)F)cnc3n2C)nc(-c2cnn(-c3cncc(F)c3)c2)n1C [Example I-20]	100%	100%	100%	100%	–	–	–	–
CCS(=O)(=O)c1c(-c2nc3cc(C(F)(F)C(F)(F)F)cnc3n2C)nc(-n2cc(C#N)c(-c3ccccc3F)c2)n1C [Example I-25]	100%	–	–	100%	–	–	–	–
CCS(=O)(=O)c1c(-c2nc3cc(C(F)(F)F)cnc3n2C)nc(C2CC(c3ccc(Cl)cc3)=NO2)n1C (centres unmarked) [Example I-2]	–	100%	–	100%	–	–	–	–
CCS(=O)(=O)c1c(-c2nc3cc(C(F)(F)C(F)(F)F)cnc3n2C)nc(-c2cccc(C3(C#N)CC3)c2)n1C [Example I-24]	100%	100%	–	100%	–	–	–	–
CCS(=O)(=O)c1c(-c2nc3cc(C(F)(F)C(F)(F)F)cnc3n2C)nc(-n2cc(C#N)c(-c3ccc(F)cc3)c2)n1C [Example I-26]	100%	100%	–	100%	–	–	–	–
CCS(=O)(=O)c1c(-c2nc3cc(C(F)(F)C(F)(F)F)cnc3n2C)nc(-c2cccc(N3CCOCC3)n2)n1C [Example I-23]	100%	100%	–	100%	–	–	–	–
CCS(=O)(=O)c1c(-c2nc3cc(C(F)(F)F)cnc3n2C)nc(-c2cccc(C3(C#N)CC3)c2)n1C [Example I-12]	100%	100%	90%	100%	–	–	–	–
CCS(=O)(=O)c1c(-c2nc3cc(C(F)(F)F)cnc3n2C)nc(-c2ccnn2C2CC2)n1C [Example I-7]	–	100%	90%	–	–	–	–	100%
